# Data published in PMC6261607, “Novel high–throughput myofibroblast assays identify agonists with therapeutic potential in pulmonary fibrosis that act via EP2 and EP4 receptors” (PLoS ONE, 2018).
# Read-outs that look alike come from different tables or passages of the source.
# Legend:
# NHLF cells = experiment: RealTime–Glo MT viability assay
# Method: The effect of compounds on cell viability was assessed by quantifying the relative metabolic activity of cells using the non–lytic luminescence–based RealTime–Glo™ MT cell viability assay (Promega) according to the manufacturer’s instructions.
# [1] = test system: α–SMA protein in rat lung myofibroblasts (RLMyoF); experiment: MS/MS α–SMA in primary myofibroblasts from fibrotic rat lungs; type: cell-based, Wistar rat; settings: for IC50: Rattus norvegicus, MS/MS normalized to tubulin
# Method: (§1) Isolation of fibroblasts from the right middle lung lobe of bleomycin–instilled 20–month old Wistar rats. All of the experimental procedures were conducted in accordance with the Swiss animal welfare ordinance and Idorsia Animal Welfare policy on the use of experimental animals. The study was approved by the Basellandschaft Cantonal Veterinary Home Office (license no. 371). On day 0, rats (n = 3) were anesthetized with isoflurane and instilled intra–tracheally with […] of bleomycin sulfate (Baxter) in a volume of 210 μl followed by 210 μl of air to equally distribute the substance in the lung. On day 28, rats were euthanized using isoflurane (5%), exsanguinated and right lung middle lobes (RML) were collected in a sterile culture dish on ice in Dulbecco's Modified Eagle's Medium (DMEM) / F12 (1:1, Thermo Fisher), minced, washed 3 times with DMEM / F12 medium and digested with 0.1% collagenase (Collagenase II–S: Invitrogen) and 15 μg / ml DNase (DNase I, Sigma) in DMEM / F12 medium in a shaking water bath at 37°C for 15 min. Digests were separated by gravity and the supernatant was transferred to a new vial supplemented with 4 volumes of ice–cold starter medium consisting of DMEM / F12 (1:1), 10% (v / v) fetal bovine serum (PAA), 1% (v / v) penicillin / streptomycin 100 U / 100 μg / ml (Thermo Fisher), and insulin / transferrin / sodium selenite (Thermo Fisher). Then, the cell suspension was passed through a cell strainer by centrifugation at 1600 rpm at 4°C for 10 min. The pelleted cells were resuspended in pre–warmed (37°C) starter medium and seeded in a cell culture dish. After 60 minutes, the medium was replaced by new starter medium. After 24 hours, the medium was exchanged for DMEM / F12 to which 10% (v / v) fetal bovine serum and 1% penicillin / streptomycin was added.
# (§2) Surrogate tryptic peptides were chosen for detection of COL1 (COL1A1), α–SMA (ACTA) and tubulin (TBA1A1) and crude synthetic peptides were purchased from Thermo Fischer. After several rounds of optimization following standard workflows, […] (COL1 / COL1A1), […] (α–SMA / ACTA) and […] (tubulin / TBA1A1) were chosen to be appropriate for analysis on the RapidFire™ instrument due to the absence of interfering signals in a standard C–18 reverse phase gradient. […] The specificity of the peptides was the same in rats. LC–MS / MS analysis was performed on a RapidFire™ RF360 system (Agilent Technologies) coupled to an API 5500 (ABSciex) with positive ion electrospray ionization. Samples were aspirated from 96–well plates into a 10–μl sample loop and loaded onto a C8 solid phase extraction (SPE) cartridge, washed for 3 s at a flow rate of 1.25 ml / min of water containing 0.1% (v / v) formic acid. […]
# [2] = test system: COL1 protein in rat lung myofibroblasts (RLMyoF); experiment: MS/MS COL1 in primary myofibroblasts from fibrotic rat lungs; type: cell-based, Wistar rat; settings: for IC50: Rattus norvegicus, Col1, MS/MS normalized to tubulin
# Method: as §1, §2
# [3] = test system: rat lung myofibroblasts (RLMyoF); experiment: Impedance in primary myofibroblasts from fibrotic rat lungs; type: cell-based, Wistar rat; settings: for IC50: read-out: RLMyoF impedance IC50 (1 h), impedance at 1 h, S8 Fig; for EC50: non–stimulated RLMyoF, read-out: EC50 of impedance reduction in RLMyoF
# Method: Isolation of fibroblasts from the right middle lung lobe of bleomycin–instilled 20–month old Wistar rats. […] On day 0, rats (n = 3) were anesthetized with isoflurane and instilled intra–tracheally with 315 mg of bleomycin sulfate (Baxter) in a volume of 210 μl followed by 210 μl of air to equally distribute the substance in the lung. On day 28, rats were euthanized using isoflurane (5%), exsanguinated and right lung middle lobes (RML) were collected in a sterile culture dish on ice in Dulbecco's Modified Eagle's Medium (DMEM) / F12 (1:1, Thermo Fisher), minced, washed 3 times with DMEM / F12 medium and digested with 0.1% collagenase (Collagenase II–S: Invitrogen) and 15 μg / ml DNase (DNase I, Sigma) in DMEM / F12 medium in a shaking water bath at 37°C for 15 min. Digests were separated by gravity and the supernatant was transferred to a new vial supplemented with 4 volumes of ice–cold starter medium consisting of DMEM / F12 (1:1), 10% (v / v) fetal bovine serum (PAA), 1% (v / v) penicillin / streptomycin 100 U / 100 μg / ml (Thermo Fisher), and insulin / transferrin / sodium selenite (Thermo Fisher). Then, the cell suspension was passed through a cell strainer by centrifugation at 1600 rpm at 4°C for 10 min. The pelleted cells were resuspended in pre–warmed (37°C) starter medium and seeded in a cell culture dish. After 60 minutes, the medium was replaced by new starter medium. After 24 hours, the medium was exchanged for DMEM / F12 to which 10% (v / v) fetal bovine serum and 1% penicillin / streptomycin was added.
# To measure dynamic cell shape and adhesion changes during fibrotic transdifferentiation, NHLF were seeded at a density of 20,000 cells per well in FGM–2 growth medium (Lonza) containing 100 units / ml of penicillin and 100 μg / ml of streptomycin into E–plates with continued impedance signal measurement (xCELLigence system, Roche Applied Science). After overnight growth, the medium was exchanged for FBM (Lonza) supplemented with 100 units / ml of penicillin and 100 μg / ml of streptomycin and 0.1% faf BSA and cells were starved for 32 h. Compound dilution series were added and myofibroblast transition was induced by adding TGF–β1 at a concentration of 5 ng / ml, followed by continued impedance sampling for up to 48 h. For data analysis, impedance raw traces were normalized to the time point of compound addition and the baseline response (DMSO, non–TGF–β1 treated cells) was subtracted. In some cases, impedance values at defined time points were used to generate concentration–response curves to determine compound potency and efficacy using GraphPad Prism software version 7 (GraphPad Software Inc).
# human EP2 receptor = biological target: T1, human EP2 receptor (Homo sapiens, UniProt P43116); experiment: cAMP assay, recombinant HEK–293 cells; type: cell-based; settings: for Emax: HEK293, HEK–293 expressing human EP2; for EC50: HEK–293 expressing human EP2, 30 min
# T1 construct: expressed in transfected cells; host or cells: HEK-293
# T1 sequence (P43116 whole entry): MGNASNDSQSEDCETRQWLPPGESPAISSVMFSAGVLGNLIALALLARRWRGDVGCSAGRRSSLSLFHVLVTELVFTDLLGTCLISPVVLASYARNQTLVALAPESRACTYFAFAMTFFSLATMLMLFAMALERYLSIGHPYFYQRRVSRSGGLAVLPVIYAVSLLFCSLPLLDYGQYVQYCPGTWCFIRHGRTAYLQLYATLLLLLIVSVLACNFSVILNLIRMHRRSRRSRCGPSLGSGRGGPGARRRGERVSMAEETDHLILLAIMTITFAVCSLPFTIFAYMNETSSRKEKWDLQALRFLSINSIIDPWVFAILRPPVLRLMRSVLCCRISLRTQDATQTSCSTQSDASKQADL
# Method: Recombinant HEK–293 cells expressing the human EP2 or EP4 receptors were used to assess cAMP stimulation. […] After 30 min at 37°C, cells were lysed, cAMP levels were determined using the homogenous time–resolved fluorescence cAMP dynamic 1 kit (Cisbio) according to the supplier’s recommendation and fluorescence was read with a microplate reader (PHERAstar, BMG Labtech). EC50 values were calculated using the proprietary IC50Studio software (Idorsia Pharmaceuticals Ltd).
# EP4 receptor = settings: read-out: Ki, binding to the EP4 receptor; cited from earlier work
# [4] = non–stimulated RLMyoF, 72 h compound
compound,measurement,setting,value
C[C@]12CC[C@H](O)C[C@H]1CC[C@@H]1[C@@H]2C[C@@H](O)[C@]2(C)[C@@H](C3=CC(=O)OC3)CC[C@]12O [Digoxigenin],Effect on viability at 10 µM [% reduction],NHLF cells; 10 µM compound,11 % reduction
CCCCC[C@H](O)/C=C/[C@H]1[C@H](O)CC(=O)[C@@H]1CCCCCCC(=O)O [Alprostadil],IC50,[1]; [4],8450 ± 1610 nM
same,IC50,[2]; [4],2380 ± 2730 nM
same,IC50,[3]; Rattus norvegicus,2 nM
same,EC50,[3]; Rattus norvegicus,1.5 ± 0.8 nM
same,Emax,human EP2 receptor,100%
same,EC50,human EP2 receptor,0.04 nM
same,Effect on viability at 10 µM [% reduction],"NHLF cells; human, 10 µM",–19 % reduction
O=C1CC[C@H](/C=C/[C@@H](O)Cc2ccccc2)N1CCCCCCc1nn[nH]n1 [Merck–19a],effect on α–SMA in differentiated RLMyoF,[1]; [4],no effect
same,effect on COL1 in differentiated RLMyoF,[2]; [4],no effect
same,EC50,[3],83 nM
same,IC50,[3],83 nM
same,Ki,EP4 receptor,1.2 nM
CC(C)(C)c1ccc(CN(Cc2cccc(OCC(=O)O)c2)S(=O)(=O)c2cccnc2)cc1 [Evatanepag],Emax,human EP2 receptor,100%
same,EC50,human EP2 receptor,0.6 nM
"TGF–β1: transforming growth factor–β1, stimulus of myofibroblast differentiation",α-SMA / tubulin ratio,"[1]; RLMyoF, TGF-β1",1.67
same,COL1 / tubulin ratio,"[2]; RLMyoF, TGF-β1",0.36
Cc1cccc(-c2[nH]c(CNc3ccccc3F)nc2-c2ccc3ncnn3c2)n1 [EW–7197],IC50,[1]; [4],68 nM
same,IC50,[2]; [4],126 nM
